Results taken from US4444776A, “Dipyrido (4,3-B) (3,4-F) indoles, process for obtaining them, therapeutical use and pharmaceutical compositions” (priority 1977, dated 1984).

What was measured:
[1] = test system: Moloney virus / viro-induced Moloney sarcoma; test: Test 3: development of the viro-induced Moloney sarcoma; type: in vivo, new-born mice; settings: 1 μg/mouse (0.5 mg/kg)
Source text: The study of the development of the MOLONEY viro-induced sarcoma (Nat. Cancer. Inst. Monograph 22, 139-142, 1966) has also made it possible to determine that the compounds according to the invention are antiviral and antitumoral agents in lower animals.
Test 3: Study of the development of the viro-induced Moloney sarcoma
The injection of Moloney virus [C. Jasmin et al. J. Nat. Cander Inst. 1974 53 469-474] by the intramuscular i.m. route into new-born mice led after 10 days to the formation of a sarcoma. The appearance of the tumour was proportional to the dose of virus injected. The viral inoculum was constituted by a tumor homogenate diluted to 1/250, this corresponding to 10 TID 50, i.e. to the dose of virus inducing the appearance of a tumour in 50% of the animals infected. At this dose, 80 to 100% of the animals developed a tumour, and 100% of the survivors became leukemic. The experiment thus consisted in noting the number of mice presenting tumours, the regression, or not, of these tumours and finally in sacrificing the surviving animals after 2 months and in noting the presence or absence of splenomegaly (evidence of a leukemia). The virus was inoculated into new-born mice of 3 to 5 days by the IM route, and the mice received the following day (J+1) or five hours after injection (JO+5 hours) the product to be tested by the IP route.

[2] = test system: chloromonocytary tumoral cells; test: Test 9: action on chloromonocytary tumoral cells (chloroleukemia); type: in vivo, ICFW mouse
Experimental: Test 9: Action on chloromonocytary tumoral cells
In this test, the action of the products according to the invention on chloromonocytary tumoral cells was determined according to the chloroleukemia of the mouse test (ICFW mouse, co-sanguine CFW strain) isolated in Unit 22 (B. TAMBOURIN and F. WENDLING) of the "Institut National de la Sante et de la Recherche Medicale- Paris" (I.N.S.E.R.M.) in a mouse injected with a variant of the Friend virus.
The tumour kills all the animals injected in 19.3± 2 days. This tumour develops in semi-solid ascitic form; the peritoneum is invaded, both by solid tumoral masses and cells in suspension in the ascitic liquid. The tumour is transmitted by the cells of the suspension which produce the tumoral masses and the ascitic cells.

[3] = test system: L1210 leukemia; test: Test 15: L1210 leukemia, compound of formula 8 (Table XI); type: in vivo, mouse; settings: for ILS % / MST / Range of death: 50 mg/kg
Experimental: The proceeding of test 1 was repeated with the compound of formula 8 obtained according to example 1, i.e. 5,11-dimethyl-dipyrido[4,3-b][3,4-f]indole. In this test, the compound of formula 8 was injected four days after the inoculation of the cells (50 mg/kg). The results are shown in table XI wherein the results obtained with the same compound injected one day after the cell inoculation are also reported (see experiment no. 2 in table I).

[4] = test system: Cl3/8 cells; test: Test 5: cytotoxic effect in vitro, Cl3/8 cells; type: cell-based, hamster
Experimental: Test 5: Cytotoxic effect in vitro
The cytotoxic effects of the compounds according to the invention were tested in vitro on cultures of hamster, human and mouse cells.
In particular, the BHK21 strain of hamster cells and a clone derived from this strain transformed by Hamster Sarcoma Virus HS5 clone) were used.
5 hours later, the cells were well attached to the plastic support, and the products to be tested were added, dilutions having been made thereof in water or in DMSO (dimethylsulfoxide) if the product is sparingly soluble in water. In this latter case, a control was made with the same final concentration of DMSO in the culture medium.
The state of the cells was examined 24, 48 and 72 hours afterwards.

[5] = test system: L 1210 leukemia; test: Test 10: comparison of antitumoral activity with known products, L 1210 (Tables V-VII); type: in vivo, mouse
Experimental: Test 10: Comparison of the antitumoral activity of the compound according to example 7 with that of known products
The compound of example 7, i.e. 1-(γ-diethylaminopropyl)amino-5-methyl-dipyrido-[4,3-b][3,4-f] indole or known compounds were injected into L 1210 leukemic mice 1 or 3 days after the inoculation of the cells at the doses indicated in tables V to VII and the mean survival time (MST) and the precentage of increased life span (ILS %) were measured.
Indications concerned the known products used in this example and particularly their antitumoral properties, their secondary effects and their use in man may be found in "La Chimiotherapie des Cancers", by G. MATHE and M. KENIS Expansion Scientifique Francaise, 3rd edition, Paris 1975.

[6] = test system: L 1210 leukemia; test: Test 12: single vs fractioned dose, L 1210 leukemic mice (Table IX); type: in vivo, mouse; design: MTS: unit not given beside the values
[7] = test system: L1210 leukemia; test: Test 18: dose-L1210 antitumoral activity of compound 21; type: in vivo, mouse
Source text: Test 18: Relationship between dose and L1210 antitumoral activity of compound 21 […]

[8] = Table V, 10^4 cells, J+1, 0.2 mg/mouse
[9] = Table V, 10^4 cells, J+3, doses mg/mouse: example 7 0.2, Thiotepa 0.1, Mitomycine 0.016, BCNU 0.1, Methotrexate 0.250
[10] = Table VI, 10^5 cells, J+1, 0.2 mg/mouse
[11] = Table VI, 10^5 cells, J+3, mg/mouse: Thiotepa 0.1, Mitomycine C 0.016, BCNU 0.1, Methotrexate 0.250, example 7 0.2, Endoxan 4
[12] = Table VII, 10^5 cells, J+3, example 7 0.2 mg/mouse, ON COVIN 0.5 μg/mouse
[13] = 10^4 cells, 0.2 mg/mouse single at J+3
[14] = 10^4 cells, 4 × 0.05 mg/mouse at J+3+4+5+6
[15] = 10^5 cells, 0.2 mg/mouse single at J+3
[16] = 10^5 cells, 4 × 0.05 mg/mouse at J+3+4+5+6

What does the source list for Cc1c2ccncc2c(C)c2c1[nH]c1ccncc12 [Example 1, 5,11-dimethyl dipyrido [4,3-b][3,4-f] indole]?
animals presenting a tumour ([1]; JO+5 hours): 50%; animals survived ([1]; JO+5 hours): 75%; mice with leukemia ([1]; JO+5 hours): 65%; tumours regressed ([1]; JO+5 hours): 30%; Mean survival time after treatment ([2]; 40 mg/kg 6 hours after inoculation, without treatment 18.5 ± 2 days): 25.3 ± 3.1 days; ILS % ([3]; 10^4 cells, day +1): 11.8%; MST ([3]; 10^4 cells, day +1): 12.3 days; Range of death ([3]; 10^4 cells, day +1): 11-14; ILS % ([3]; 10^4 cells, day +4): 14.7%; MST ([3]; 10^4 cells, day +4): 12 days; Range of death ([3]; 10^4 cells, day +4): 10-16; ILS % ([3]; 10^5 cells, day +1): 38.1%; MST ([3]; 10^5 cells, day +1): 12.85 days; Range of death ([3]; 10^5 cells, day +1): 10-13; ILS % ([3]; 10^5 cells, day +4): 15.7%; MST ([3]; 10^5 cells, day +4): 10.3 days; Range of death ([3]; 10^5 cells, day +4): 10-11; ILS % ([3]; 10^6 cells, day +1): 47.3%; MST ([3]; 10^6 cells, day +1): 11.5 days; Range of death ([3]; 10^6 cells, day +1): 9-15; ILS % ([3]; 10^6 cells, day +4): 34.3%; MST ([3]; 10^6 cells, day +4): 9 days; Range of death ([3]; 10^6 cells, day +4): 8-13; increased life span (ILS %), early vs late administration ([3]; product given earlier after the cells inoculum): higher when the product was given earlier

For CCN(CC)CCCNc1nccc2c(C)c3[nH]c4ccncc4c3cc12 [Example 7, 1-(γ-diethylaminopropyl)amino-5-methyl-dipyrido-[4,3-b][3,4-f] indole], which animals survived ([1]; J+1) is on record?
The animals survived was 90%.

What about the mice presenting tumours ([1]; J+1) of the same compound?
Its mice presenting tumours is 70%.

And the mice with leukemia ([1]; J+1)?
Its mice with leukemia is 0%.

What about the tumours regressed ([1]; J+1) of the same compound?
Its tumours regressed is 90%.

What about the “animals presenting a tumour” value ([1]; JO+5 hours) of the same compound?
Its value is 5%.

And the animals survived ([1]; JO+5 hours)?
Its animals survived is 100%.

And the mice with leukemia ([1]; JO+5 hours)?
The mice with leukemia was 40%.

What about the tumours regressed ([1]; JO+5 hours) of the same compound?
The tumours regressed was 100%.

And the “cytotoxic activity compared with 2-methyl-9-hydroxy-ellipticinium acetate and 9-hydroxy-ellipticine” value ([4]; Table III summary)?
The value was “just as active as the already known derivatives”.

And the “activity compared with products presently used as antitumoral agents in lower animals” value ([4]; general statement)?
Its value is “just as active, or more so”.

What about the “Mean survival time after treatment” value ([2]; 1 mg/kg 24 hours after inoculation, without treatment 18.9 ± 1.8 day) of the same compound?
Its value is 29.0 ± 3.0 days.

What about the “Range of death (first death)” value [5, 8] of the same compound?
The value was 6 days.

And the “mice alive on 30th day” value [5, 8]?
The value was 1.

And the ILS % [5, 9]?
Its ILS % is 25.45%.

What about the “MTS (mean survival time)” value [5, 9] of the same compound?
Its value is 13.8.

And the Range of death ([5]; Table V, 10^4 cells, J+3, mg/mouse: example 7 0.2, Thiotepa 0.1, Mitomycine 0.016, BCNU 0.1, Methotrexate 0.250, Endoxan 4)?
Its Range of death is 11 to 17 days.

And the ILS % [5, 10]?
The ILS % was 39.07%.

And the “MTS (mean survival time)” value [5, 10]?
Its value is 12.6.

And the Range of death [5, 10]?
Its Range of death is 9-16.

What about the ILS % [5, 11] of the same compound?
The ILS % was 35.43%.

What about the “MTS (mean survival time)” value [5, 11] of the same compound?
Its value is 12.27.

What about the Range of death [5, 11] of the same compound?
Its Range of death is 10-15.

What about the ILS % [5, 12] of the same compound?
The ILS % was 36.35%.

And the “MTS (mean survival time)” value [5, 12]?
Its value is 14.18.

And the Range of death [5, 12]?
The Range of death was 13-16.

What about the ILS % [6, 13] of the same compound?
The ILS % was 19.32%.

What about the MTS [6, 13] of the same compound?
The MTS was 14.2.

And the Surviving mice [6, 13]?
Its Surviving mice is 1.

What about the ILS % [6, 14] of the same compound?
The ILS % was 21%.

And the MTS [6, 14]?
Its MTS is 14.4.

What about the Surviving mice [6, 14] of the same compound?
Its Surviving mice is 0.

And the ILS % [6, 15]?
The ILS % was 36.35%.

And the MTS [6, 15]?
The MTS was 14.18.

What about the ILS % [6, 16] of the same compound?
The ILS % was 28.85%.

What about the MTS [6, 16] of the same compound?
The MTS was 13.4.

What about the “antitumoral activity, single vs fractioned dose” value ([6]; same dose single or on 4 occasions) of the same compound?
The value was “a single dose has greater antitumoral activity than the same dose injected on 4 occasions”.

And the ILS ([7]; 5 mg/kg)?
The ILS was 87%.

And the ILS ([7]; 10 mg)?
The ILS was 52%.

And the “inoculated mice surviving up to 60 days” value ([7]; 20 mg per kg)?
The value was 20%.

And the ILS ([7]; 20 mg/kg)?
The ILS was 75%.

And the “inoculated mice surviving up to 60 days” value ([7]; 100mg (so in the source))?
Its value is 10%.
